Source: ChEMBL document CHEMBL1128368, “Synthesis and serotonergic activity of N,N-dimethyl-2-[5-(1,2,4-triazol-1-ylmethyl)-1H-indol-3-yl]ethylamine and analogues: potent agonists for 5-HT1D receptors” (J Med Chem, 1995)

Columns and labels:
[1] = species: Oryctolagus cuniculus; test: Functional activity was determined by the contraction of New Zealand white rabbit saphenous vein.
[2] = target: T1, 5-HT2C receptors (Sus scrofa, UniProt K7GSR7); test: Binding activity against 5-hydroxytryptamine 2C receptor from pig cortex membrane using [3H]mesulergine as radioligand.
[3] = target: T2, Serotonin 3 (5-HT3) receptor (Rattus norvegicus, UniProt P35563+Q9JJ16); test: Inhibition of [3H]-Q-ICS 205-930 binding to rat cortex homogenate 5-hydroxytryptamine 3 receptor
T2 sequence (P35563 whole entry): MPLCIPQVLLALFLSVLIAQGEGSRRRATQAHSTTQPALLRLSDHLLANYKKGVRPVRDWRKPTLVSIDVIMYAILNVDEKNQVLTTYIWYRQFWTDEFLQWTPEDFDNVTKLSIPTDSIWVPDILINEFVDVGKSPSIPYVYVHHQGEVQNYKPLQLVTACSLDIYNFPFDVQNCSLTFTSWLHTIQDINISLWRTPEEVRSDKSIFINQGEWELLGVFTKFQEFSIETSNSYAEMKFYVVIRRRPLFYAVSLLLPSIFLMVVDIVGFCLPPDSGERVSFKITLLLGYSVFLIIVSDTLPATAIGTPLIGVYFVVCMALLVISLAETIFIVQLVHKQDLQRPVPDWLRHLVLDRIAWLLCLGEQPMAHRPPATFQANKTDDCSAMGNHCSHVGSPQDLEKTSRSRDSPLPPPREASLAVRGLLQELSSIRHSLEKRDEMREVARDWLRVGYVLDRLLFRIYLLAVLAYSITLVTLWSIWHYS
T2 sequence (Q9JJ16 whole entry): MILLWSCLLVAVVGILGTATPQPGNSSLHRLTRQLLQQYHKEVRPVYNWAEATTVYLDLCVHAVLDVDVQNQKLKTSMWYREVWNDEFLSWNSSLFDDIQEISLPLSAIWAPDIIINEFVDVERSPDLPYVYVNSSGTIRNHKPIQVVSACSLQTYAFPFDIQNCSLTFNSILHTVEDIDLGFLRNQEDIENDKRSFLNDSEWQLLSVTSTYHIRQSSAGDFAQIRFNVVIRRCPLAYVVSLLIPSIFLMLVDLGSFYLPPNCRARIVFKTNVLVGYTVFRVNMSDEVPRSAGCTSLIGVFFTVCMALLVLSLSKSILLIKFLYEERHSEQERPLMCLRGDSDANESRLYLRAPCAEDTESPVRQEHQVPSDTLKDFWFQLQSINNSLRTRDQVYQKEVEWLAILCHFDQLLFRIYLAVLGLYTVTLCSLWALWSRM

[4] = Partition coefficient (logD7.4); conditions: octanol/water, pH 7.4
[5] = Binding activity against 5-hydroxytryptamine 2C receptor from pig cortex membrane using [3H]mesulergine as radioligand.
[6] = target: T1, 5-HT2C receptors; test: Binding activity against 5-hydroxytryptamine 2C receptor from pig cortex membrane using [3H]mesulergine as radioligand; NA Not Available
[7] = target: 5-hydroxytryptamine receptor 1D (Sus scrofa, UniProt P79400); test: Binding activity against 5-hydroxytryptamine 1D receptor from pig caudate membrane using [3H]5-HT as radioligand
[8] = target: T2, Serotonin 3 (5-HT3) receptor; test: Binding activity radioligand.; format: protein-complex assay
[9] = target: Serotonin 3 (5-HT3) receptor; test: Binding activity against 5-hydroxytryptamine 1A receptor from human brain cortex using [3H]8-OH-DPAT[…] radioligand.

Sequence of 5-hydroxytryptamine receptor 1D (P79400 whole entry): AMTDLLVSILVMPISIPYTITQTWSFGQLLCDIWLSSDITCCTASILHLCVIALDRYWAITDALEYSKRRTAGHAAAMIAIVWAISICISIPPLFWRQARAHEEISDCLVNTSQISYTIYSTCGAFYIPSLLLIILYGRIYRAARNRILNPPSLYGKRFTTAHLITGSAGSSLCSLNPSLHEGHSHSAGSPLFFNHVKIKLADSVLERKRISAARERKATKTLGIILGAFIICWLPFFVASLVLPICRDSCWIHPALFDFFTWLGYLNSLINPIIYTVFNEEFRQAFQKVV

Row | Compound | EC50 [1] | IC50 [2] | IC50 [3] | logD [4] | further results
1 | CCn1nnnc1Cc1ccc2[nH]cc(CCN(C)C)c2c1 | 398 nM | > 10000 nM | > 10000 nM | – | –
2 | CN(C)CCc1c[nH]c2ccc(Cc3nnnn3C)cc12 | 251 nM | > 10000 nM | 5010 nM | – | –
3 | Cc1nccn1-c1ccc2[nH]cc(CCN(C)C)c2c1 | 158 nM | > 10000 nM | 3160 nM | -0.13 | –
4 | CN(C)CCc1c[nH]c2ccc(Cc3nc(N)no3)cc12 | – | 398 nM | – | – | pIC50 [5]: 5.9
5 | CN(C)CCc1c[nH]c2ccc(Cc3nnn[nH]3)cc12 | – | > 10000 nM | – | – | –
6 | CN(C)CCc1c[nH]c2ccc(Cn3ncnn3)cc12 | 200 nM | 2000 nM | 3160 nM | -0.34 | –
7 | CN(C)CCc1c[nH]c2ccc(Cn3ccnn3)cc12 | 1000 nM | – | – | – | IC50 [6]: 6310 nM
8 | CN(C)CCc1c[nH]c2ccc(Cc3nncn3C)cc12 | – | > 10000 nM | – | – | –
9 | CN(C)CCc1c[nH]c2ccc(Cn3cnnn3)cc12 | 200 nM | 5010 nM | 1260 nM | – | –
10 | CN(C)CCc1c[nH]c2ccc(Cc3ncn(C)n3)cc12 | – | – | – | -1.01 | IC50 [7]: 200 nM
11 | CN(C)CCc1c[nH]c2ccc(Cn3nccn3)cc12 | – | – | – | -0.2 | IC50 [7]: 251 nM
12 | CN(C)CCc1c[nH]c2ccc(Cn3cncn3)cc12 [RIZATRIPTAN] | 251 nM | 6310 nM | – | -0.74 | IC50 [8]: 3980 nM; pIC50 [9]: < 5
13 | CN(C)CCc1c[nH]c2ccc(Cn3ccnc3)cc12 | 501 nM | 3160 nM | 1260 nM | -0.53 | –
14 | CCn1nnc(Cc2ccc3[nH]cc(CCN(C)C)c3c2)n1 | 631 nM | 1580 nM | 2510 nM | – | –
15 | Cc1nccn1Cc1ccc2[nH]cc(CCN(C)C)c2c1 | 631 nM | 7940 nM | 1580 nM | – | –
16 | CN(C)CCc1c[nH]c2ccc(-n3cncn3)cc12 | 63.1 nM | 10000 nM | 10000 nM | – | –
17 | CN(C)CCc1c[nH]c2ccc(Cc3nnn(C)n3)cc12 | 1000 nM | 2510 nM | 2510 nM | – | –
18 | CN(C)CCc1c[nH]c2ccc(Cc3ncnn3C)cc12 | 631 nM | 3980 nM | 10000 nM | -0.75 | –
